Measured values published in US20080221086A1, “Novel Inhibitors of Glutaminyl Cyclase” (PROBIODRUG AG, priority 2006, published 2008).

Biological target: hQC (Homo sapiens, UniProt Q16769)
Test: Fluorometric assay of glutaminyl cyclase (QC) inhibition, H-Gln-βNA or H-Gln-AMC substrate
Assay type: biochemical
Conditions: read-out: IC50
Method in brief: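 Ki values were obtained by fitting progress curves to a competitive-inhibition equation, and the rapid screen used 4 mM inhibitor with substrate at 1 KM. Both readouts coupled pyroglutamyl aminopeptidase at pH 8.0 and 30° C: H-Gln-βNA at 0.2 mM (ex/em 320/410 nm) or H-Gln-AMC (380/460 nm).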

Sequence of hQC (Q16769 29-361): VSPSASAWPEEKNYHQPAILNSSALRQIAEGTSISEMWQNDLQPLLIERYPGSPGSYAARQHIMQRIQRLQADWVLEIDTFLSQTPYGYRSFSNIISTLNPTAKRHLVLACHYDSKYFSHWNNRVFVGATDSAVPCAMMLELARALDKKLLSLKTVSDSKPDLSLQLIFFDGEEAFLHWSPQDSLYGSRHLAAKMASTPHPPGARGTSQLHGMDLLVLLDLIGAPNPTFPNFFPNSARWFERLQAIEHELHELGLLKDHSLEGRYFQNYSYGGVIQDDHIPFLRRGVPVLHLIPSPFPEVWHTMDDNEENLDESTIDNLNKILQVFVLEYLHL

SMILES	IC50
O=C(C/N=C1/NC(=O)N(CCCn2ccnc2)C1c1ccc(O)cc1)N1CCc2ccccc2C1 (stereo not drawn) [Compound 79, 4-2-(3,4-Dihydro-1H-isoquinolin-2-yl)-2-oxo-ethylimino-5-(4-hydroxy-phenyl)-1-(3-imidazol-1-yl-propyl)-imidazolidin-2-one]	3.1 µM
CC1/C(=N/C(c2ccccc2)c2ccccc2)NC(=O)N1CCCn1ccnc1 (stereo not drawn) [Compound 80, 4-Benzhydrylimino-1-(3-imidazol-1-yl-propyl)-5-methyl-imidazolidin-2-one]	9.4 µM
O=C1N/C(=N\C(c2ccccc2)c2ccccc2)C(CO)N1CCCn1ccnc1 (stereo not drawn) [Compound 85, 4-Benzhydrylimino-5-hydroxymethyl-1-(3-imidazol-1-yl-propyl)-imidazolidin-2-one]	6.7 µM
O=C1N/C(=N/Cc2cccnc2)C(c2cc(F)cc(F)c2)N1CCCn1ccnc1 (stereo not drawn) [Compound 90, 5-(3,5-Difluoro-phenyl)-1-(3-imidazol-1-yl-propyl)-4-pyridin-3-ylmethylimino-imidazolidin-2-one]	8.5 µM
O=C1N/C(=N/Cc2cccnc2)C(c2cccc(F)c2)N1CCCn1ccnc1 (stereo not drawn) [Compound 91, 5-(3-Fluoro-phenyl)-1-(3-imidazol-1-yl-propyl)-4-pyridin-3-ylmethylimino-imidazolidin-2-one]	8.5 µM
O=C1N/C(=N/Cc2ccccc2)C(c2ccccc2)N1CCCn1ccnc1 (stereo not drawn) [Compound 92, 4-Benzylimino-1-(3-imidazol-1-yl-propyl)-5-phenyl-imidazolidin-2-one]	8.5 µM
O=C1N/C(=N/Cc2ccccc2)C(c2ccc[nH]2)N1CCCn1ccnc1 (stereo not drawn) [Compound 93, 4-Benzylimino-1-(3-imidazol-1-yl-propyl)-5-(1H-pyrrol-2-yl)-imidazolidin-2-one]	9.4 µM
O=C1N/C(=N\Cc2ccccc2)C(c2cccc(F)c2F)N1CCCn1ccnc1 (stereo not drawn) [Compound 94, 4-Benzylimino-5-(2,3-difluoro-phenyl)-1-(3-imidazol-1-yl-propyl)-imidazolidin-2-one]	5.8 µM
O=C1N/C(=N/Cc2ccccc2)C(c2cc(F)cc(F)c2)N1CCCn1ccnc1 (stereo not drawn) [Compound 95, 4-Benzylimino-5-(3,5-difluoro-phenyl)-1-(3-imidazol-1-yl-propyl)-imidazolidin-2-one]	5.8 µM
O=C1N/C(=N\Cc2ccccc2)C(c2ccccc2F)N1CCCn1ccnc1 (stereo not drawn) [Compound 98, 4-Benzylimino-5-(2-fluoro-phenyl)-1-(3-imidazol-1-yl-propyl)-imidazolidin-2-one]	5.8 µM
O=C1N/C(=N/Cc2ccccc2)C(c2ccc(O)cc2)N1CCCn1ccnc1 (stereo not drawn) [Compound 99, 4-Benzylimino-5-(4-hydroxy-phenyl)-1-(3-imidazol-1-yl-propyl)-imidazolidin-2-one]	6.7 µM
O=C1NC(=Nc2ccc(Oc3ccccc3)cc2)C(CO)N1CCCn1ccnc1 (stereo not drawn) [Compound 102, 5-Hydroxymethyl-1-(3-imidazol-1-yl-propyl)-4-4-phenoxy-phenylimino-imidazolidin-2-one]	8.5 µM
O=C1N/C(=N\CCC(c2ccccc2)c2ccccc2)C(c2ccccc2)N1CCCn1ccnc1 (stereo not drawn) [Compound 105, 4-3,3-Diphenyl-propylimino-1-(3-imidazol-1-yl-propyl)-5-phenyl-imidazolidin-2-one]	3.1 µM
O=C1N/C(=N\CCC(c2ccccc2)c2ccccc2)C(c2ccccc2Cl)N1CCCn1ccnc1 (stereo not drawn) [Compound 110, 5-(2-Chloro-phenyl)-4-3,3-diphenyl-propylimino-1-(3-imidazol-1-yl-propyl)-imidazolidin-2-one]	6.7 µM
O=C1N/C(=N/CCC(c2ccccc2)c2ccccc2)C(CO)N1CCCn1ccnc1 (stereo not drawn) [Compound 111, 4-3,3-Diphenyl-propylimino-5-hydroxymethyl-1-(3-imidazol-1-yl-propyl)-imidazolidin-2-one]	9.4 µM
O=C1NC(=NCC2CCCO2)C(c2cc(F)cc(F)c2)N1CCCn1ccnc1 (stereo not drawn) [Compound 115, 5-(3,5-Difluoro-phenyl)-1-(3-imidazol-1-yl-propyl)-4-tetrahydro-furan-2-ylmethylimino-imidazolidin-2-one]	7.6 µM
C/N=C1/NC(=O)N(c2ccc3[nH]cnc3c2)C1c1ccc2[nH]ccc2c1 (stereo not drawn) [Compound 116, 1-(1H-Benzoimidazol-5-yl)-5-(1H-indol-5-yl)-4-methylimino-imidazolidin-2-one]	0.004 µM

More lines, in order of falling IC50, values ahead:

IC50	SMILES
9.4 µM	O=C1N/C(=N\C(c2ccccc2)c2ccccc2)C(C2CCC=CO2)N1CCCn1ccnc1 (stereo not drawn) [Compound 82, 4-Benzhydrylimino-5-(3,4-dihydro-2H-pyran-2-yl)-1-(3-imidazol-1-yl-propyl)-imidazolidin-2-one]
9.4 µM	O=C1N/C(=N\C(c2ccccc2)c2ccccc2)C(c2ccc(O)cc2)N1CCCn1ccnc1 (stereo not drawn) [Compound 89, 4-Benzhydrylimino-5-(4-hydroxy-phenyl)-1-(3-imidazol-1-yl-propyl)-imidazolidin-2-one]
9.4 µM	CCCCC1C(=Nc2ccc(Oc3ccccc3)cc2)NC(=O)N1CCCn1ccnc1 (stereo not drawn) [Compound 103, 5-Butyl-1-(3-imidazol-1-yl-propyl)-4-4-phenoxy-phenylimino-imidazolidin-2-one]
9.4 µM	CCCC1/C(=N\CCC(c2ccccc2)c2ccccc2)NC(=O)N1CCCn1ccnc1 (stereo not drawn) [Compound 104, 4-3,3-Diphenyl-propylimino-1-(3-imidazol-1-yl-propyl)-5-propyl-imidazolidin-2-one]
8.5 µM	O=C1NC(=NCC2CCCO2)C(c2cccc(F)c2F)N1CCCn1ccnc1 (stereo not drawn) [Compound 114, 5-(2,3-Difluoro-phenyl)-1-(3-imidazol-1-yl-propyl)-4-tetrahydro-furan-2-ylmethylimino-imidazolidin-2-one]
7.6 µM	O=C1N/C(=N\C(c2ccccc2)c2ccccc2)C(c2cccc(F)c2F)N1CCCn1ccnc1 (stereo not drawn) [Compound 83, 4-Benzhydrylimino-5-(2,3-difluoro-phenyl)-1-(3-imidazol-1-yl-propyl)-imidazolidin-2-one]
7.6 µM	O=C1N/C(=N\c2ccc(Oc3ccccc3)cc2)C(c2ccc(Cl)c(F)c2)N1CCCn1ccnc1 (stereo not drawn) [Compound 101, 5-(4-Chloro-3-fluoro-phenyl)-1-(3-imidazol-1-yl-propyl)-4-4-phenoxy-phenylimino-imidazolidin-2-one]
7.6 µM	O=C1N/C(=N\CCC(c2ccccc2)c2ccccc2)C(C2CCC=CO2)N1CCCn1ccnc1 (stereo not drawn) [Compound 106, 5-(3,4-Dihydro-2H-pyran-2-yl)-4-3,3-diphenyl-propylimino-1-(3-imidazol-1-yl-propyl)-imidazolidin-2-one]
7.6 µM	O=C1NC(=NCCC(c2ccccc2)c2ccccc2)C(c2ccc(Cl)c(F)c2)N1CCCn1ccnc1 (stereo not drawn) [Compound 109, 5-(4-Chloro-3-fluoro-phenyl)-4-3,3-diphenyl-propylimino-1-(3-imidazol-1-yl-propyl)-imidazolidin-2-one]
7.6 µM	O=C1N/C(=N\CCC(c2ccccc2)c2ccccc2)C(c2cccc(F)c2)N1CCCn1ccnc1 (stereo not drawn) [Compound 113, 4-3,3-Diphenyl-propylimino-5-(3-fluoro-phenyl)-1-(3-imidazol-1-yl-propyl)-imidazolidin-2-one]
6.7 µM	O=C1N/C(=N/Cc2ccccc2)C(c2ccc(Cl)c(F)c2)N1CCCn1ccnc1 (stereo not drawn) [Compound 96, 4-Benzylimino-5-(4-chloro-3-fluoro-phenyl)-1-(3-imidazol-1-yl-propyl)-imidazolidin-2-one]
6.7 µM	O=C1N/C(=N\CCC(c2ccccc2)c2ccccc2)C(c2cccc(F)c2F)N1CCCn1ccnc1 (stereo not drawn) [Compound 107]
6.7 µM	O=C1N/C(=N\CCC(c2ccccc2)c2ccccc2)C(c2cc(F)cc(F)c2)N1CCCn1ccnc1 (stereo not drawn) [Compound 108, 5-(3,5-Dihydro-phenyl)-4-3,3-diphenyl-propylimino-1-(3-imidazol-1-yl-propyl)-imidazolidin-2-one]
6.7 µM	O=C1N/C(=N\CCC(c2ccccc2)c2ccccc2)C(c2ccccc2F)N1CCCn1ccnc1 (stereo not drawn) [Compound 112, 4-3,3-Diphenyl-propylimino-5-(2-fluoro-phenyl)-1-(3-imidazol-1-yl-propyl)-imidazolidin-2-one]
5.8 µM	O=C1N/C(=N\C(c2ccccc2)c2ccccc2)C(c2ccccc2)N1CCCn1ccnc1 (stereo not drawn) [Compound 81, 4-Benzhydrylimino-1-(3-imidazol-1-yl-propyl)-5-phenyl-imidazolidin-2-one]
5.8 µM	CCCCC1/C(=N/C(c2ccccc2)c2ccccc2)NC(=O)N1CCCn1ccnc1 (stereo not drawn) [Compound 86, 4-Benzhydrylimino-5-butyl-1-(3-imidazol-1-yl-propyl)-imidazolidin-2-one]
5.8 µM	O=C1N/C(=N\C(c2ccccc2)c2ccccc2)C(c2cccc(F)c2)N1CCCn1ccnc1 (stereo not drawn) [Compound 88, 4-Benzhydrylimino-5-(3-fluoro-phenyl)-1-(3-imidazol-1-yl-propyl)-imidazolidin-2-one]
4.9 µM	O=C1N/C(=N\c2ccc(Oc3ccccc3)cc2)C(C2CCC=CO2)N1CCCn1ccnc1 (stereo not drawn) [Compound 100, 5-(3,4-Dihydro-2H-pyran-2-yl)-1-(3-imidazol-1-yl-propyl)-4-4-phenoxy-phenylimino-imidazolidin-2-one]
4 µM	O=C1N/C(=N\C(c2ccccc2)c2ccccc2)C(c2ccccc2F)N1CCCn1ccnc1 (stereo not drawn) [Compound 87, 4-Benzhydrylimino-5-(2-fluoro-phenyl)-1-(3-imidazol-1-yl-propyl)-imidazolidin-2-one]
4 µM	O=C1N/C(=N\Cc2ccccc2)C(c2ccccc2Cl)N1CCCn1ccnc1 (stereo not drawn) [Compound 97, 4-Benzylimino-5-(2-chloro-phenyl)-1-(3-imidazol-1-yl-propyl)-imidazolidin-2-one]
3.1 µM	O=C1N/C(=N\C(c2ccccc2)c2ccccc2)C(c2cc(F)cc(F)c2)N1CCCn1ccnc1 (stereo not drawn) [Compound 84, 4-Benzhydrylimino-5-(3,5-difluoro-phenyl)-1-(3-imidazol-1-yl-propyl)-imidazolidin-2-one]
1.3 µM	O=C1N/C(=N/C2CC2)C(c2ccc(Cl)c(F)c2)N1c1ccc2[nH]cnc2c1 (stereo not drawn) [Compound 117, 1-(1H-Benzoimidazol-5-yl)-5-(4-chloro-3-fluoro-phenyl)-4-cyclopropylimino-imidazolidin-2-one]
